Publication PMC10850954, “HDAC6/aggresome processing pathway importance for inflammasome formation is context-dependent” (The Journal of Biological Chemistry, 2024)

Columns and labels:
Assay in all cases: In vitro enzymatic assay with purified HDACs
Type in all cases: biochemical
HDAC5 = HDAC5 (Homo sapiens, UniProt Q9UQL6)
Text: (§1) To extend these observations in other cell settings, we next made use of a novel HDAC6 proteolysis targeting chimera (PROTAC) degrader, XY-07-35 ([19]). Treatment of cells with XY-07-35 leads to recruitment of the E3 ligase cereblon (CRBN) to HDAC6, ubiquitination, and subsequent proteasomal degradation of HDAC6 (Fig. 3A).
(§2) Figure 3 Effect of […] mediated HDAC6 degradation on NLRP3 inflammasome activation in PBMCs.A, schematic of the mode of action of an HDAC6 degrader. The PROTAC engages both HDAC6 and the E3 ligase cereblon (CRBN), which then leads to ubiquitination and degradation of HDAC6. B, chemical structure of the HDAC6 degrader XY-07-35 and of the negative control XY-07-191 which no longer recruits CRBN. C, in vitro enzymatic assay of compound XY-07-35 on the activity of different HDACs. IC50 for each enzyme is shown. D, XY-07-35 mediated HDAC6 degradation in PBMCs. PBMCs (without or with LPS priming for 4 h) were treated with the indicated compounds and HDAC6 levels were detected by immunoblotting with an anti-HDAC6 antibody. Detection of actin was used as a control for loading. CGP, CGP084892 (Caspase-1 inhibitor); AFN700 is an inhibitor of the NF-kB pathway (IKK inhibitor). E, HDAC6 degradation impact on IL-1β release in PBMCs following MSU 200 μg/ml (5 h), nigericin 2 μM (2 h) or ATP 3 mM (0.5 h) treatment. Cells were first primed with 0.2 ng/ml LPS for 4 h at 37 °C, then treated with MSU, nigericin, and ATP as indicated. The graphs below show the results of three independent experiments using the inducers as indicated. NP3-948 is an inhibitor of the NLRP3 inflammasome. TEXT PRINTED IN THE PICTURE: (C) XY-07-035: Compound IC50 (μM): 1.04 (Target: HDAC1); Compound IC50 (μM): 2.47 (Target: HDAC2); Compound IC50 (μM): 1.44 (Target: HDAC3); Compound IC50 (μM): 5.75 (Target: HDAC5); Compound IC50 (μM): 0.0485 (Target: HDAC6); Compound IC50 (μM): 0.621 (Target: HDAC8) DOUBTS OF THE COPYIST ABOUT THIS PICTURE: XY-07-035, HDAC4, HDAC7 and HDAC9: the table prints only dashes (--), no value, so these rows are left out

HDAC2 = HDAC2 (Homo sapiens, UniProt Q92769)
HDAC2, sequence (Q92769 whole entry, species assumed): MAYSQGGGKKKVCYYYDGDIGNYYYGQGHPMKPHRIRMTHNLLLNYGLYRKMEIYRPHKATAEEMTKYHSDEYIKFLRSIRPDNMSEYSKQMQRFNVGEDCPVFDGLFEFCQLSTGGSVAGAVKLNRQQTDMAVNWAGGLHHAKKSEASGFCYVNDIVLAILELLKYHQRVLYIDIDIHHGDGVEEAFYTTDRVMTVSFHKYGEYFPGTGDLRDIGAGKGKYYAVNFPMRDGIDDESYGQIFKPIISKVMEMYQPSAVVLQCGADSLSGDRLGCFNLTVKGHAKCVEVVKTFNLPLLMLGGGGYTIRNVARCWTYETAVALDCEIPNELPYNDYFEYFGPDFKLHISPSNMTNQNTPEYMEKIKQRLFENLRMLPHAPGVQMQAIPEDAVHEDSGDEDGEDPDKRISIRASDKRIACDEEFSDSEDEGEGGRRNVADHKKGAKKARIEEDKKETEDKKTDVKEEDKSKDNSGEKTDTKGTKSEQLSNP
Text: as §1, §2

HDAC1 = HDAC1 (Homo sapiens, UniProt Q13547)
HDAC1, sequence (Q13547 whole entry, species assumed): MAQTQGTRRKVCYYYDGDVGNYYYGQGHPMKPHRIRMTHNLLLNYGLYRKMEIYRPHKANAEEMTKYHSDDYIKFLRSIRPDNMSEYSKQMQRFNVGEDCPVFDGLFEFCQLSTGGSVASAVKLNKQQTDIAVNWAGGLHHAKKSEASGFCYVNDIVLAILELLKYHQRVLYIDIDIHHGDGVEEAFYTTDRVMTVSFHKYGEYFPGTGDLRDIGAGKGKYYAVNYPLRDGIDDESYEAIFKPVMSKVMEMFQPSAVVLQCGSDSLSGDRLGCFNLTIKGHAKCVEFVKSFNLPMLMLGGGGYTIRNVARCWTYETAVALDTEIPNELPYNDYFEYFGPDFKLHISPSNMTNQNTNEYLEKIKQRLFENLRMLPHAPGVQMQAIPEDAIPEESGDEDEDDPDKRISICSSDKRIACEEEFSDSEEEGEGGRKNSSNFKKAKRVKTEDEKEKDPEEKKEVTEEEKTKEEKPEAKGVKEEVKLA
Text: as §1, §2

HDAC6 = target: T1, HDAC6 (Homo sapiens, UniProt Q9UBN7)
T1 sequence (Q9UBN7 1-1215): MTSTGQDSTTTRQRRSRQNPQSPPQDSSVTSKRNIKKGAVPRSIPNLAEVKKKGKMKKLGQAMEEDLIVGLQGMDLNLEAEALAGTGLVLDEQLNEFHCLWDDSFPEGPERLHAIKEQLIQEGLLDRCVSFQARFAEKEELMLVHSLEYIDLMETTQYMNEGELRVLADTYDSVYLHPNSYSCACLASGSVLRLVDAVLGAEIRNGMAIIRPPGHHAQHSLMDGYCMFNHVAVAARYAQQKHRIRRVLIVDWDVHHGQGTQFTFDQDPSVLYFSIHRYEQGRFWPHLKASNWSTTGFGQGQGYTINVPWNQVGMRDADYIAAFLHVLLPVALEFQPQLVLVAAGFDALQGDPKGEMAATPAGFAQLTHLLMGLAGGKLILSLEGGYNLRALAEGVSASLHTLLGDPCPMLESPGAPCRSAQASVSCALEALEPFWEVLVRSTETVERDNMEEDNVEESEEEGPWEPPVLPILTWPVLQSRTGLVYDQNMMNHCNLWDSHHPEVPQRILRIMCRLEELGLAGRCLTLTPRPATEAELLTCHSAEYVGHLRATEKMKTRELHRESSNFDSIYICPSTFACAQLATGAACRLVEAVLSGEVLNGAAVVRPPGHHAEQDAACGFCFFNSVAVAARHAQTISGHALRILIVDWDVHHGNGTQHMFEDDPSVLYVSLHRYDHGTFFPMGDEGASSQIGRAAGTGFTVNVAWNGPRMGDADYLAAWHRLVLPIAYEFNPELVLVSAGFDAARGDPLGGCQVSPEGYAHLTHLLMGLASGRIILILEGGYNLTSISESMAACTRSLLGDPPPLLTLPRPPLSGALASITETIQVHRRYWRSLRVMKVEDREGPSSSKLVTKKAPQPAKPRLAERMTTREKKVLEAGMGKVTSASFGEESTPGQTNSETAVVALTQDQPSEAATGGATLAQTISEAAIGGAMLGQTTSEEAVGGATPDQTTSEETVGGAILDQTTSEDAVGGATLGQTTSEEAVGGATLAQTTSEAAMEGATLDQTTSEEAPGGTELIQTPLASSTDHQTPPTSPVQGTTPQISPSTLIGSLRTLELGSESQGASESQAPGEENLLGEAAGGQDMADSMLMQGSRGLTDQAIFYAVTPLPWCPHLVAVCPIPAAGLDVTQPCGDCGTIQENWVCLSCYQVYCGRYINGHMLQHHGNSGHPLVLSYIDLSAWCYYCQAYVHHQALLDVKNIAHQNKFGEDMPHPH
Text: as §1, §2

HDAC3 = HDAC3 (Homo sapiens, UniProt O15379)
HDAC3, sequence (O15379 whole entry, species assumed): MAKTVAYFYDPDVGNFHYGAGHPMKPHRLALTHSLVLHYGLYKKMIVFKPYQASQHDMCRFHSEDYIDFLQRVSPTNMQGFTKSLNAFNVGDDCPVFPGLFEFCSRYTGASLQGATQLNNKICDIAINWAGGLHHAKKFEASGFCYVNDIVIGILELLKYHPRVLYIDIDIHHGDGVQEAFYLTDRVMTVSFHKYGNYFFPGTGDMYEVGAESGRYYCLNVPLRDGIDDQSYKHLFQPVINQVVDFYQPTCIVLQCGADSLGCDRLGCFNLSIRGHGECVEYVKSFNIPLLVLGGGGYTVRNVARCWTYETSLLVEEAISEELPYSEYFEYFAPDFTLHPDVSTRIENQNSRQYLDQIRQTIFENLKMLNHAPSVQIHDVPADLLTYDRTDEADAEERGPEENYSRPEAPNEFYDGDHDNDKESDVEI
HDAC3, sequence (Q9Y618 395-489 partner limits assumed, species assumed): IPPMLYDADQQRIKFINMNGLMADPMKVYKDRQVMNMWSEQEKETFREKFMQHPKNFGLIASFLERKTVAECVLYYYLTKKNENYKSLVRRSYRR
Text: as §1, §2

other HDACs = other HDACs (than HDAC6 and HDAC8)
Text: as §1, §2

HDAC8 = target: T2, HDAC8 (Homo sapiens, UniProt Q9BY41)
T2 sequence (Q9BY41 1-377): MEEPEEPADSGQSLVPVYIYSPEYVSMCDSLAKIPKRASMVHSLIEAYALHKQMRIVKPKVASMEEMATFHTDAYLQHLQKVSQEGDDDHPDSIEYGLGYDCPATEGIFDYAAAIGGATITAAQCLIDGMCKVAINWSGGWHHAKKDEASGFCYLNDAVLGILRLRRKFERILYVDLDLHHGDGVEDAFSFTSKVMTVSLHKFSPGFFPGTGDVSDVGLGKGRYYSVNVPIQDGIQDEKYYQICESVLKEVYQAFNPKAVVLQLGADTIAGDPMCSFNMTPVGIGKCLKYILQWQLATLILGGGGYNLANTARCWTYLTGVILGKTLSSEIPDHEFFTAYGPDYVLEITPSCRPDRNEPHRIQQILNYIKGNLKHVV
Text: as §1, §2

HDAC5, sequence (Q9UQL6 whole entry, species assumed): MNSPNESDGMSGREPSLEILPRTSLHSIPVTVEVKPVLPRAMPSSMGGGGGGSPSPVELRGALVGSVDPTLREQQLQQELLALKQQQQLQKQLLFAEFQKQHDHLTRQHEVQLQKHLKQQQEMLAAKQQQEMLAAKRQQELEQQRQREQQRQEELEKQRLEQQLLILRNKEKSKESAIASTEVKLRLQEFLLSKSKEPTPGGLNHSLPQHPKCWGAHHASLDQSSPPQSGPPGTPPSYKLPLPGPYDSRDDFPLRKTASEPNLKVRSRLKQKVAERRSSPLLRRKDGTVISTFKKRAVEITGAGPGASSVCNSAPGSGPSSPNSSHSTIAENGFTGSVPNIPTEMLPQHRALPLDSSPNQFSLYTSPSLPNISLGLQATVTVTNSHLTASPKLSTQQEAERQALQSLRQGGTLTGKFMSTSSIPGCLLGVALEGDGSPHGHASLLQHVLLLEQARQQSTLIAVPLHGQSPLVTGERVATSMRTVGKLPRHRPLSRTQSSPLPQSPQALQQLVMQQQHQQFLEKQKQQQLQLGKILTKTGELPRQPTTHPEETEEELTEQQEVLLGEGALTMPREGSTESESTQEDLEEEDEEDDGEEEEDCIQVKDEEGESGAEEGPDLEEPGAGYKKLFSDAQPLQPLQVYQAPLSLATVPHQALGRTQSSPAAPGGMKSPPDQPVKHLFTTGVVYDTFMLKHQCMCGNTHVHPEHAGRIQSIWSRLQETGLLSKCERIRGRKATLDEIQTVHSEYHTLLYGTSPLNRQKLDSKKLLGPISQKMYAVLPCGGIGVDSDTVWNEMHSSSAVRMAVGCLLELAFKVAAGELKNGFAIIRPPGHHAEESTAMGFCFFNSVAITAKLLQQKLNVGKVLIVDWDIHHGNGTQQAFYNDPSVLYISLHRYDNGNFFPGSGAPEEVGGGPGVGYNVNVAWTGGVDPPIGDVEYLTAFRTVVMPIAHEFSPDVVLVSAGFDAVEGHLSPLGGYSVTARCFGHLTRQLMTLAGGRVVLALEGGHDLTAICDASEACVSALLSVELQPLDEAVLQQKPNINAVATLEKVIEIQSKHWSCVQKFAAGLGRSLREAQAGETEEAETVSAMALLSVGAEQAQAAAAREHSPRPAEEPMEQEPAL

CN(C(=O)CCCNc1cccc2c1C(=O)N(C1CCC(=O)NC1=O)C2=O)c1ccc(NC(=O)CCCCCCC(=O)NO)cc1 (stereo not shown) [XY-07-35]
IC50 (HDAC5): 5750 nM
IC50 (HDAC2): 2470 nM
IC50 (HDAC1): 1040 nM
IC50 (HDAC6): 48.5 nM
IC50 (HDAC3): 1440 nM
IC50 (other HDACs): 1040 to 5750 nM
IC50 (HDAC8): 621 nM
